Patent publication US5358947A, “Angiotensin II receptor blocking 2,3-substituted pyrazolo[1,5-a]-1,3,5-triazin-4(3H)-ones” (American Cyanamid Company, priority 1993, dated 1994)
Values joined by “and” are separate entries in the source; they are usually repeats but may differ in a detail not shown here. Equal values may be shown once.

Test system: ANGIOTENSIN II (AII) VASOPRESSOR RESPONSE
Assay: AII Challenge: angiotensin II (AII) vasopressor response in conscious rats
Assay type: in vivo
Parameters: Response After AII / Change / Average Change: unit not given here
Settings: 10 mg/kg i.v.; for Change / Response After AII / Control Before AII: individual rat, listed as Ex. 12; for Control Before AII: in mmHg (unit assumed); for % Inhibition / Average Change: n = 2
Source text: By administering a compound of this invention to a rat, and then challenging with angiotensin II, a blockage of the vasopressor response is realized.
Conscious Male Okamoto-Aoki SHR, 16-20 weeks old, weighing approximately 330 g are purchased from Charles River Labs (Wilmington, Mass.). Conscious rats are restrained in a supine position with elastic tape. The area at the base of the tail is locally anesthetized by subcutaneous infiltration with 2% procaine. The ventral caudal artery and vein are isolated, and a cannula made of polyethylene (PE) 10-20 tubing (fused together by heat) is passed into the lower abdominal aorta and vena cava, respectively. The cannula is secured, heparinized (1,000 I.U./ml), sealed and the wound is closed. The animals are placed in plastic restraining cages in an upright position. The cannula is attached to s Statham P23Db pressure transducer, and pulsatile blood pressure is recorded to 10-15 minutes with a Gould Brush recorder. (Chan et al., (Drug Development Res., 18:75-94, 1989).
Angiotensin II (human sequence, Sigma Chem. Co., St. Louis, Mo.) of 0.05 and 0.1 ug/kg i.v. is injected into all rats (predosing response.). Then a test compound, vehicle or a known angiotensin II antagonist is administered i.v., i.p. or orally to each set of rats. The two doses of angiotensin II are given to each rat again at 30, 60, 90, 120, 180, 240 and 300 minutes post dosing the compound or vehicle. The vasopressor response of angiotensin II by a compound is calculated using the vasopressor response (increase in systolic blood pressure) of angiotensin II of each rat predosing the compound as 100%. A compound is considered active if at 30 mg/kg i.v. it antagonized at least 50% of the response.

[1] = AII 0.05 mcg/kg, 30 min post dose
[2] = AII 0.05 mcg/kg, 60 min post dose
[3] = AII 0.05 mcg/kg, 90 min post dose
[4] = AII 0.05 mcg/kg, 120 min post dose
[5] = AII 0.05 mcg/kg, 180 min post dose
[6] = AII 0.05 mcg/kg, 240 min post dose
[7] = AII 0.05 mcg/kg, 300 min post dose
[8] = AII 0.1 mcg/kg, 30 min post dose
[9] = AII 0.1 mcg/kg, 60 min post dose
[10] = AII 0.1 mcg/kg, 90 min post dose
[11] = AII 0.1 mcg/kg, 120 min post dose
[12] = AII 0.1 mcg/kg, 180 min post dose
[13] = AII 0.1 mcg/kg, 240 min post dose
[14] = AII 0.1 mcg/kg, 300 min post dose

Structure (SMILES): CCCCc1nc2cc(-c3ccc(F)cc3)nn2c(=O)n1Cc1ccc(-c2ccccc2-c2nnn[nH]2)cc1 [Example 12, 2-Butyl-7-(4-fluorophenyl)-3-[[2'-(1H-tetrazol-5-yl)[1,1'-biphenyl]-4-yl]methyl]pyrazolo[1,5-a]-1,3,5-triazin-4(3H)-one]
- Change [1]: 10 and 20
- Response After AII [1]: 205 and 245
- Control Before AII [1]: 195 and 225
- % Inhibition [1]: 73%
- Average Change [1]: 15
- Change [2]: 20 and 10
- Response After AII [2]: 200 and 240
- Control Before AII [2]: 180 and 230
- % Inhibition [2]: 7%
- Average Change [2]: 15
- Change [3]: 20 and 25
- Response After AII [3]: 185 and 250
- Control Before AII [3]: 165 and 225
- % Inhibition [3]: 59%
- Average Change [3]: 22.5
- Change [4]: 25 and 30
- Response After AII [4]: 185 and 255
- Control Before AII [4]: 160 and 225
- % Inhibition [4]: 50%
- Average Change [4]: 27.5
- Change [5]: 10 and 33
- Response After AII [5]: 195 and 240
- Control Before AII [5]: 185 and 207
- % Inhibition [5]: 61%
- Average Change [5]: 21.5
- Change [6]: 10 and 35
- Response After AII [6]: 195 and 255
- Control Before AII [6]: 185 and 220
- % Inhibition [6]: 59%
- Average Change [6]: 22.5
- Change [7]: 15 and 35
- Response After AII [7]: 200 and 260
- Control Before AII [7]: 185 and 225
- % Inhibition [7]: 55%
- Average Change [7]: 25
- Change [8]: 10 and 15
- Response After AII [8]: 210 and 250
- Control Before AII [8]: 200 and 235
- % Inhibition [8]: 76%
- Average Change [8]: 12.5
- Change [9]: 15 and 30
- Response After AII [9]: 205 and 250
- Control Before AII [9]: 190 and 220
- % Inhibition [9]: 57%
- Average Change [9]: 22.5
- Change [10]: 30 and 25
- Response After AII [10]: 200 and 260
- Control Before AII [10]: 170 and 235
- % Inhibition [10]: 48%
- Average Change [10]: 27.5
- Change [11]: 25 and 42
- Response After AII [11]: 195 and 267
- Control Before AII [11]: 170 and 225
- % Inhibition [11]: 36%
- Average Change [11]: 33.5
- Change [12]: 15 and 40
- Response After AII [12]: 200 and 250
- Control Before AII [12]: 185 and 210
- % Inhibition [12]: 48%
- Average Change [12]: 27.5
- Change [13]: 15 and 45
- Response After AII [13]: 200 and 270
- Control Before AII [13]: 185 and 225
- % Inhibition [13]: 43%
- Average Change [13]: 30
- Change [14]: 20 and 50
- Response After AII [14]: 205 and 275
- Control Before AII [14]: 185 and 225
- % Inhibition [14]: 33%
- Average Change [14]: 35
